PubChem BioAssay AID220 (DTP/NCI, 2004)
“And” between values parts separate entries of the source, which are not always exact repeats. Identical values can stand only once. Records with an inconclusive call do not appear.

System: CD8F1 mice, subcutaneous mammary adenocarcinoma, T/C%
Assay: NCI In Vivo Anticancer Drug Screen. Data for tumor model Mammary Adenocarcinoma CD8F1 (subcutaneous) in CD8F1
Conditions: higher = larger tumour
How it was run: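 Compound-treated versus vehicle-treated mice with transplantable tumors; survival or tumor size compared as T/C.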

[1] = endpoint: median tumor weight (est.), dose: 25.0 mg/kg/injection, schedule: Q07DX005 (ip), vehicle: saline
[2] = endpoint: median tumor weight (est.), dose: 50.0 mg/kg/injection, schedule: Q07DX005 (ip), vehicle: saline
[3] = endpoint: median tumor weight (est.), dose: 100.0 mg/kg/injection, schedule: Q07DX005 (ip), vehicle: saline
[4] = endpoint: median tumor weight (est.), dose: 200.0 mg/kg/injection, schedule: Q07DX005 (ip), vehicle: saline
[5] = endpoint: median tumor weight (est.), dose: 400.0 mg/kg/injection, schedule: Q07DX005 (ip), vehicle: saline
[6] = endpoint: median tumor weight (est.), dose: 12.5 mg/kg/injection, schedule: Q07DX005 (ip), vehicle: Klucel (hydroxypropylcellulose) (HPC)
[7] = endpoint: median tumor weight (est.), dose: 50.0 mg/kg/injection, schedule: Q07DX005 (ip), vehicle: Klucel (hydroxypropylcellulose) (HPC)
[8] = endpoint: median tumor weight (est.), dose: 100.0 mg/kg/injection, schedule: Q07DX005 (ip), vehicle: Klucel (hydroxypropylcellulose) (HPC)
[9] = endpoint: median tumor weight (est.), dose: 200.0 mg/kg/injection, schedule: Q07DX005 (ip), vehicle: Klucel (hydroxypropylcellulose) (HPC)
[10] = endpoint: median tumor weight (est.), dose: 400.0 mg/kg/injection, schedule: Q07DX005 (ip), vehicle: Klucel (hydroxypropylcellulose) (HPC)

## O=c1[nH]c(=O)n(C2CC(O)C(CO)O2)cc1F (stereo not drawn)
endpoint: mean tumor weight, dose: 25.0 mg/kg/injection, schedule: Q01DX009 (ip), vehicle: saline
  T/C: 50 % of control
endpoint: mean tumor weight, dose: 50.0 mg/kg/injection, schedule: Q01DX009 (ip), vehicle: saline
  T/C: 20 % of control
endpoint: mean tumor weight, dose: 100.0 mg/kg/injection, schedule: Q01DX009 (ip), vehicle: saline
  T/C: 30 % of control
endpoint: mean tumor weight, dose: 125.0 mg/kg/injection, schedule: Q07DX005 (ip), vehicle: saline
  T/C: 585 % of control
endpoint: mean tumor weight, dose: 125.0 mg/kg/injection, schedule: Q07DX006 (ip), vehicle: saline
  T/C: 49 % of control
endpoint: mean tumor weight, dose: 250.0 mg/kg/injection, schedule: Q07DX005 (ip), vehicle: saline
  T/C: 180 % of control
endpoint: mean tumor weight, dose: 250.0 mg/kg/injection, schedule: Q07DX006 (ip), vehicle: saline
  T/C: 6 % of control
endpoint: mean tumor weight, dose: 500.0 mg/kg/injection, schedule: Q07DX005 (ip), vehicle: saline
  T/C: 473 % of control
endpoint: median tumor weight (est.), dose: 12.5 mg/kg/injection, schedule: Q07DX005 (ip), vehicle: saline
  T/C: 97 % of control
[1]
  T/C: 116 % of control
[2]
  T/C: 72 % of control and 81 % of control
[3]
  T/C: 62 % of control and 78 % of control
[4]
  T/C: 27 % of control and 46 % of control
[5]
  T/C: 5 % of control and 11 % of control

## CCC(CC)COC(=O)c1ccccc1C(=O)OCC(CC)CC
endpoint: median tumor weight (est.), dose: 25.0 mg/kg/injection, schedule: Q07DX005 (ip), vehicle: saline with Tween-80
  T/C: 83 % of control
endpoint: median tumor weight (est.), dose: 200.0 mg/kg/injection, schedule: Q07DX005 (ip), vehicle: saline with Tween-80
  T/C: 65 % of control
endpoint: median tumor weight (est.), dose: 400.0 mg/kg/injection, schedule: Q07DX005 (ip), vehicle: saline with Tween-80
  T/C: 75 % of control
endpoint: median tumor weight (est.), dose: 800.0 mg/kg/injection, schedule: Q07DX005 (ip), vehicle: saline with Tween-80
  T/C: 64 % of control

## O=C(O)CC(NC(=O)CP(=O)(O)O)C(=O)O (stereo not drawn)
[1]
  T/C: 92 % of control
[2]
  T/C: 94 % of control
[3]
  T/C: 62 % of control
[4]
  T/C: 56 % of control
[5]
  T/C: 9 % of control
endpoint: median tumor weight change, dose: 100.0 mg/kg/injection, schedule: Q01DX001 (ip), vehicle: saline
  T/C: 81 % of control
endpoint: median tumor weight change, dose: 200.0 mg/kg/injection, schedule: Q01DX001 (ip), vehicle: saline
  T/C: 92 % of control
endpoint: median tumor weight change, dose: 400.0 mg/kg/injection, schedule: Q01DX001 (ip), vehicle: saline
  T/C: 85 % of control
endpoint: median tumor weight change, dose: 800.0 mg/kg/injection, schedule: Q01DX001 (ip), vehicle: saline
  T/C: 66 % of control

## CN(C)N=Nc1ccc(S(N)(=O)=O)cc1
[6]
  T/C: 225 % of control and 117 % of control
[7]
  T/C: 213 % of control and 73 % of control
[8]
  T/C: 72 % of control and 93 % of control
[9]
  T/C: 48 % of control
[10]
  T/C: 22 % of control

## C1OC1CO[C@@H]1CO[C@H]2[C@@H]1OC[C@H]2OCC1CO1 (stereo partly drawn)
[6]
  T/C: 44 % of control
endpoint: median tumor weight (est.), dose: 25.0 mg/kg/injection, schedule: Q07DX005 (ip), vehicle: Klucel (hydroxypropylcellulose) (HPC)
  T/C: 53 % of control
endpoint: median tumor weight (est.), dose: 25.0 mg/kg/injection, schedule: Q07DX005 (ip), vehicle: suspension in saline
  T/C: 108 % of control
[7]
  T/C: 84 % of control
endpoint: median tumor weight (est.), dose: 50.0 mg/kg/injection, schedule: Q07DX005 (ip), vehicle: suspension in saline
  T/C: 64 % of control
[8]
  T/C: 108 % of control
endpoint: median tumor weight (est.), dose: 100.0 mg/kg/injection, schedule: Q07DX005 (ip), vehicle: suspension in saline
  T/C: 48 % of control
[9]
  T/C: 57 % of control
endpoint: median tumor weight (est.), dose: 200.0 mg/kg/injection, schedule: Q07DX005 (ip), vehicle: suspension in saline
  T/C: 51 % of control
[10]
  T/C: 16 % of control
endpoint: median tumor weight (est.), dose: 400.0 mg/kg/injection, schedule: Q07DX005 (ip), vehicle: suspension in saline
  T/C: 9 % of control

## c1ccc([Te][Te]c2ccccc2)cc1
endpoint: median tumor weight change, dose: 75.0 mg/kg/injection, schedule: Q01DX001 (ip), vehicle: Klucel (hydroxypropylcellulose) (HPC)
  T/C: 97 % of control
endpoint: median tumor weight change, dose: 150.0 mg/kg/injection, schedule: Q01DX001 (ip), vehicle: Klucel (hydroxypropylcellulose) (HPC)
  T/C: 48 % of control
endpoint: median tumor weight change, dose: 300.0 mg/kg/injection, schedule: Q01DX001 (ip), vehicle: Klucel (hydroxypropylcellulose) (HPC)
  T/C: 34 % of control

## Cl
[1]
  T/C: 93 % of control
[2]
  T/C: 91 % of control
[3]
  T/C: 67 % of control
[4]
  T/C: 93 % of control
[5]
  T/C: 48 % of control

## Oc1ccc(O)cc1
endpoint: median tumor weight (est.), dose: 12.5 mg/kg/injection, schedule: Q07DX004 (ip), vehicle: saline
  T/C: 36 % of control
endpoint: median tumor weight (est.), dose: 25.0 mg/kg/injection, schedule: Q07DX004 (ip), vehicle: saline
  T/C: 76 % of control
endpoint: median tumor weight (est.), dose: 50.0 mg/kg/injection, schedule: Q07DX004 (ip), vehicle: saline
  T/C: 68 % of control
endpoint: median tumor weight (est.), dose: 100.0 mg/kg/injection, schedule: Q07DX004 (ip), vehicle: saline
  T/C: 57 % of control

## C/C=C\C(C)=C/C(C)C(=O)CC(O)CC1CC(=O)NC(=O)C1 (stereo not drawn)
endpoint: median tumor weight change, dose: 50.0 mg/kg/injection, schedule: Q01DX001 (ip), vehicle: saline with Tween-80
  T/C: 66 % of control
endpoint: median tumor weight change, dose: 56.0 mg/kg/injection, schedule: Q01DX001 (ip), vehicle: DMSO
  T/C: 58 % of control
endpoint: median tumor weight change, dose: 100.0 mg/kg/injection, schedule: Q01DX001 (ip), vehicle: saline with Tween-80
  T/C: 66 % of control
endpoint: median tumor weight change, dose: 112.0 mg/kg/injection, schedule: Q01DX001 (ip), vehicle: DMSO
  T/C: 60 % of control
endpoint: median tumor weight change, dose: 200.0 mg/kg/injection, schedule: Q01DX001 (ip), vehicle: saline with Tween-80
  T/C: 73 % of control
endpoint: median tumor weight change, dose: 225.0 mg/kg/injection, schedule: Q01DX001 (ip), vehicle: DMSO
  T/C: 77 % of control
endpoint: median tumor weight change, dose: 400.0 mg/kg/injection, schedule: Q01DX001 (ip), vehicle: saline with Tween-80
  T/C: 98 % of control

## CC(=O)c1c(O)c(C)c(O)c2c1OC1=CC(=O)C(C(C)=O)C(=O)C12C (stereo not drawn)
endpoint: median tumor weight (est.), dose: 12.5 mg/kg/injection, schedule: Q07DX004 (ip), vehicle: gum acacia
  T/C: 44 % of control
endpoint: median tumor weight (est.), dose: 12.5 mg/kg/injection, schedule: Q07DX005 (ip), vehicle: gum acacia
  T/C: 95 % of control
endpoint: median tumor weight (est.), dose: 25.0 mg/kg/injection, schedule: Q07DX004 (ip), vehicle: gum acacia
  T/C: 78 % of control
endpoint: median tumor weight (est.), dose: 25.0 mg/kg/injection, schedule: Q07DX005 (ip), vehicle: gum acacia
  T/C: 120 % of control
endpoint: median tumor weight (est.), dose: 50.0 mg/kg/injection, schedule: Q04DX005 (ip), vehicle: gum acacia
  T/C: 79 % of control and 97 % of control
endpoint: median tumor weight (est.), dose: 50.0 mg/kg/injection, schedule: Q07DX004 (ip), vehicle: gum acacia
  T/C: 85 % of control
endpoint: median tumor weight (est.), dose: 50.0 mg/kg/injection, schedule: Q07DX005 (ip), vehicle: gum acacia
  T/C: 85 % of control
endpoint: median tumor weight (est.), dose: 100.0 mg/kg/injection, schedule: Q07DX004 (ip), vehicle: gum acacia
  T/C: 114 % of control
endpoint: median tumor weight (est.), dose: 100.0 mg/kg/injection, schedule: Q07DX005 (ip), vehicle: gum acacia
  T/C: 74 % of control
endpoint: median tumor weight (est.), dose: 200.0 mg/kg/injection, schedule: Q07DX005 (ip), vehicle: gum acacia
  T/C: 102 % of control
endpoint: median tumor weight (est.), dose: 400.0 mg/kg/injection, schedule: Q04DX005 (ip), vehicle: gum acacia
  T/C: 97 % of control
endpoint: median tumor weight (est.), dose: 400.0 mg/kg/injection, schedule: Q07DX004 (ip), vehicle: gum acacia
  T/C: 42 % of control
endpoint: median tumor weight (est.), dose: 400.0 mg/kg/injection, schedule: Q07DX005 (ip), vehicle: gum acacia
  T/C: 96 % of control

## O=C1NC(=O)NC(C(=O)O)N1
endpoint: median tumor weight change, dose: 12.0 mg/kg/injection, schedule: Q01DX001 (ip), vehicle: DMSO
  T/C: 79 % of control
endpoint: median tumor weight change, dose: 25.0 mg/kg/injection, schedule: Q01DX001 (ip), vehicle: DMSO
  T/C: 104 % of control
endpoint: median tumor weight change, dose: 50.0 mg/kg/injection, schedule: Q01DX001 (ip), vehicle: DMSO
  T/C: 79 % of control
endpoint: median tumor weight change, dose: 75.0 mg/kg/injection, schedule: Q01DX001 (ip), vehicle: DMSO
  T/C: 83 % of control
endpoint: median tumor weight change, dose: 100.0 mg/kg/injection, schedule: Q01DX001 (ip), vehicle: DMSO
  T/C: 73 % of control
endpoint: median tumor weight change, dose: 150.0 mg/kg/injection, schedule: Q01DX001 (ip), vehicle: DMSO
  T/C: 96 % of control
endpoint: median tumor weight change, dose: 200.0 mg/kg/injection, schedule: Q01DX001 (ip), vehicle: DMSO
  T/C: 83 % of control
endpoint: median tumor weight change, dose: 300.0 mg/kg/injection, schedule: Q01DX001 (ip), vehicle: DMSO
  T/C: 86 % of control
endpoint: median tumor weight change, dose: 400.0 mg/kg/injection, schedule: Q01DX001 (ip), vehicle: DMSO
  T/C: 56 % of control
endpoint: median tumor weight change, dose: 600.0 mg/kg/injection, schedule: Q01DX001 (ip), vehicle: DMSO
  T/C: 80 % of control

## [CH3][Sn]([CH3])([Cl])[S]CCN
endpoint: median tumor weight change, dose: 12.5 mg/kg/injection, schedule: Q01DX001 (ip), vehicle: saline
  T/C: 108 % of control

## O=C(O)CCCCCCCC(=O)O
endpoint: median tumor weight change, dose: 225.0 mg/kg/injection, schedule: Q01DX001 (ip), vehicle: distilled water + Tween-80
  T/C: 122 % of control
endpoint: median tumor weight change, dose: 450.0 mg/kg/injection, schedule: Q01DX001 (ip), vehicle: distilled water + Tween-80
  T/C: 82 % of control
